Source: the supplement of paper PMC5662764
± gives the standard deviation of the averaged measurements.

Key:
Assay in all cases: normalised growth rate inhibition (GR value) relative to DMSO control (GR (1 = untreated growth, 0 = cytostasis, <0 = cytotoxic)); higher = less growth inhibition
Conditions in all cases: 72 h
MCF7 = test system: MCF7
Method: (§1)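 Breast cancer cell lines (BT-20, Hs 578T, MCF 10A, MCF7, MDA-MB-231, SK-BR-3) were plated in 384-well plates and treated 24 h later with drugs at six concentrations (0.04-10 µM). Viable cells were counted by Hoechst/dead-cell-stain imaging at 0 and 72 h. Counts were normalised to DMSO controls on the same plate to give the relative cell count and the growth-rate inhibition (GR) value; technical plate triplicates were averaged for each biological replicate.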

MCF10A = test system: MCF10A
Method: as §1

SKBR3 = test system: SKBR3
Method: as §1

BT20 = test system: BT20
Method: as §1

MDAMB231 = test system: MDAMB231
Method: as §1

HS578T = test system: HS578T
Method: as §1

| Structure (SMILES) | normalised growth rate inhibition (MCF7; 0.04 µM) | normalised growth rate inhibition (MCF7; 0.12 µM) | normalised growth rate inhibition (MCF7; 0.37 µM) | normalised growth rate inhibition (MCF7; 1.11 µM) | normalised growth rate inhibition (MCF7; 3.33 µM) | normalised growth rate inhibition (MCF7; 10 µM) | normalised growth rate inhibition (MCF10A; 0.04 µM) | normalised growth rate inhibition (MCF10A; 0.12 µM) | normalised growth rate inhibition (MCF10A; 0.37 µM) | normalised growth rate inhibition (MCF10A; 1.11 µM) | normalised growth rate inhibition (MCF10A; 3.33 µM) | normalised growth rate inhibition (MCF10A; 10 µM) | normalised growth rate inhibition (SKBR3; 0.04 µM) | normalised growth rate inhibition (SKBR3; 0.12 µM) | normalised growth rate inhibition (SKBR3; 0.37 µM) | normalised growth rate inhibition (SKBR3; 1.11 µM) | normalised growth rate inhibition (SKBR3; 3.33 µM) | normalised growth rate inhibition (SKBR3; 10 µM) | normalised growth rate inhibition (BT20; 0.04 µM) | normalised growth rate inhibition (BT20; 0.12 µM) | normalised growth rate inhibition (BT20; 0.37 µM) | normalised growth rate inhibition (BT20; 1.11 µM) | normalised growth rate inhibition (BT20; 3.33 µM) | normalised growth rate inhibition (BT20; 10 µM) | normalised growth rate inhibition (MDAMB231; 0.04 µM) | normalised growth rate inhibition (MDAMB231; 0.12 µM) | normalised growth rate inhibition (MDAMB231; 0.37 µM) | normalised growth rate inhibition (MDAMB231; 1.11 µM) | normalised growth rate inhibition (MDAMB231; 3.33 µM) | normalised growth rate inhibition (MDAMB231; 10 µM) | normalised growth rate inhibition (HS578T; 0.04 µM) | normalised growth rate inhibition (HS578T; 0.12 µM) | normalised growth rate inhibition (HS578T; 0.37 µM) | normalised growth rate inhibition (HS578T; 1.11 µM) | normalised growth rate inhibition (HS578T; 3.33 µM) | normalised growth rate inhibition (HS578T; 10 µM) |
| --- | --- | --- | --- | --- | --- | --- | --- | --- | --- | --- | --- | --- | --- | --- | --- | --- | --- | --- | --- | --- | --- | --- | --- | --- | --- | --- | --- | --- | --- | --- | --- | --- | --- | --- | --- | --- |
| COc1cc(C(=O)NC2CCN(C)CC2)ccc1Nc1ncc2c(n1)N(C1CCCC1)CCC(=O)N2C(C)C | 0.764 ± 0.077 | 0.84 ± 0.053 | 0.858 ± 0.07 | 0.807 ± 0.02 | 0.758 ± 0.065 | 0.298 ± 0.024 | 0.975 ± 0.04 | 0.979 ± 0.045 | 0.984 ± 0.019 | 0.972 ± 0.024 | 0.948 ± 0.029 | 0.758 ± 0.086 | 0.601 ± 0.093 | 0.755 ± 0.053 | 0.775 ± 0.079 | 0.758 ± 0.088 | 0.787 ± 0.082 | 0.511 ± 0.17 | 0.783 ± 0.068 | 0.948 ± 0.1 | 0.933 ± 0.14 | 0.936 ± 0.11 | 0.888 ± 0.1 | 0.734 ± 0.15 | 0.765 ± 0.047 | 0.884 ± 0.069 | 0.86 ± 0.068 | 0.834 ± 0.077 | 0.767 ± 0.093 | 0.308 ± 0.08 | 0.972 ± 0.024 | 0.964 ± 0.045 | 0.93 ± 0.03 | 0.917 ± 0.0095 | 0.8447 ± 0.0079 | 0.275 ± 0.079 |
| COc1cc2ncn(-c3cc(OCc4ccccc4C(F)(F)F)c(C(N)=O)s3)c2cc1OC | 0.68 ± 0.15 | 0.279 ± 0.18 | 0.14 ± 0.023 | 0.072 ± 0.019 | 0.0415 ± 0.007 | 0.167 ± 0.099 | 0.96 ± 0.027 | 0.817 ± 0.083 | 0.412 ± 0.13 | 0.0464 ± 0.034 | -0.0733 ± 0.13 | -0.101 ± 0.17 | 0.847 ± 0.018 | 0.463 ± 0.19 | -0.0831 ± 0.12 | -0.157 ± 0.18 | -0.213 ± 0.17 | 0.0233 ± 0.42 | 0.853 ± 0.061 | 0.614 ± 0.18 | 0.331 ± 0.27 | -0.00404 ± 0.12 | -0.126 ± 0.06 | -0.0325 ± 0.31 | 0.892 ± 0.064 | 0.736 ± 0.11 | 0.404 ± 0.12 | 0.0556 ± 0.12 | -0.0347 ± 0.12 | 0.0238 ± 0.14 | 0.959 ± 0.075 | 0.603 ± 0.19 | 0.0393 ± 0.039 | -0.137 ± 0.087 | -0.145 ± 0.12 | 0.00336 ± 0.2 |
| COc1cc2ncnc(-n3nc(-c4ccccn4)nc3N)c2cc1OC | 1.09 ± 0.051 | 1.04 ± 0.045 | 1.05 ± 0.083 | 1.01 ± 0.1 | 0.918 ± 0.14 | 0.499 ± 0.41 | 1.018 ± 0.01 | 1.01 ± 0.014 | 1.008 ± 0.0099 | 0.994 ± 0.011 | 0.972 ± 0.018 | 0.729 ± 0.26 | 1.16 ± 0.032 | 1.05 ± 0.033 | 1.04 ± 0.069 | 0.95 ± 0.13 | 0.871 ± 0.17 | 0.479 ± 0.44 | 1.07 ± 0.0067 | 1.03 ± 0.032 | 1.01 ± 0.036 | 1.02 ± 0.014 | 0.954 ± 0.047 | 0.588 ± 0.22 | 1.05 ± 0.057 | 1.02 ± 0.058 | 0.785 ± 0.4 | 0.938 ± 0.041 | 0.903 ± 0.1 | 0.534 ± 0.25 | 1.035 ± 0.0072 | 1.04 ± 0.021 | 1.05 ± 0.033 | 1.02 ± 0.053 | 0.978 ± 0.083 | 0.686 ± 0.15 |
| C[C@@H](N)c1ccc(C(=O)Nc2ccnc3[nH]ccc23)cc1 | 1.06 ± 0.049 | 1.04 ± 0.043 | 1 ± 0.039 | 0.905 ± 0.11 | 0.63 ± 0.19 | -0.243 ± 0.13 | 0.9685 ± 0.0076 | 0.877 ± 0.069 | 0.888 ± 0.038 | 0.864 ± 0.047 | 0.805 ± 0.089 | 0.336 ± 0.18 | 0.839 ± 0.19 | 0.836 ± 0.19 | 0.782 ± 0.14 | 0.667 ± 0.18 | 0.522 ± 0.18 | -0.122 ± 0.18 | 0.994 ± 0.068 | 1.01 ± 0.098 | 0.962 ± 0.084 | 0.895 ± 0.073 | 0.802 ± 0.09 | 0.296 ± 0.17 | 0.873 ± 0.12 | 0.849 ± 0.1 | 0.777 ± 0.11 | 0.703 ± 0.086 | 0.586 ± 0.062 | -0.303 ± 0.14 | 0.884 ± 0.015 | 0.821 ± 0.059 | 0.802 ± 0.03 | 0.757 ± 0.041 | 0.626 ± 0.054 | 0.0283 ± 0.12 |
